Earlier results in patent publication US8313770B2, “Modifying drug release in suspensions of ionic resin systems” (NEOS Therapeutics, LP, priority 2007, dated 2012).

Solubility in water and alcohol: soluble
Structure (SMILES): COc1ccccc1OCC(O)CO (stereo not shown) [Guaifenesin, 3(2-methoxyphenoxy)-1,2-propanediol]
